The results in this text go back to EP3114111B1, “BICYCLIC PYRROLE DERIVATIVES USEFUL AS AGONISTS OF GPR120” (Janssen Pharmaceutica NV, priority 2014, dated 2015).

Structures are written as SMILES.

One test has as its system C57bl6 Mouse. The experiment in a line: GPR120 C57bl6 Mouse IPGTT. The format is in vivo, C57bl/6J Mice. How it is done:
Male, C57bl/6J Mice were ordered in at 8 weeks of age from Jackson Labs. Individual mice weighed anywhere in the range of 25-30 grams on study day. The mice were fasted, with removal of food occurring at 7am on the morning of the study. Animals were moved into the room at 10:00am, to give them time to acclimate. Glucose (insulin syringes) was drawn up either the night before or the morning of the study. Glucose was dosed (IP) at 1.5g/kg at 7.5ml/kg (20% glucose straight TEKNOVA, 250ml sterile bottle w/ catalogue number G0525). Test compounds were kept spinning and were only drawn into the syringes prior to study commencement. Animals were bled via tail snip to determine basal glucose levels prior to dosing of treatments. An Ascensia BREEZE Blood Glucose Monitoring System by Bayer (using unique 10-test disks) was used for determining glucose levels. The bleeds started at approximately 12:45pm and dosing started, at 1-minute intervals, immediately after. All groups were dosed 30 minutes prior to glucose administration at a dose volume of 10ml/kg (the dose volume was calculated separately for each individual animal). Thirty minutes after the first dose animals were bled again for a second baseline, or T=0, and immediately dosed with glucose via an i.p. injection. The exact dose volume for glucose was also calculated separately for each individual animal. Glucose measurements were taken at -30min prior to compound dose, at t=0 (immediately prior to glucose dose), and at 15, 30, 45, 60, 90min post glucose dose.
Glucose values were entered into an Excel sheet and graphed in GraphPad Prism. The following were calculated from Prism: Change from -30 to 0 BSLN Glucose, Raw Glucose AUC -30 to 90min, Delta Glucose AUC -30 to 90min, Raw Glucose AUC 0 to 90min, Delta Glucose AUC 0 to 90min.

A further test has as its system DIO Mice. The experiment in a line: GPR120 DIO Mice OGTT Screening. The format is in vivo, C57BI6 mice. The note with it: for DIO Lowering Glucose AUC: DIO mice OGTT; for Lowering Glucose AUC: DIO Dose Response. Here is the method:
18-22 week old, C57BI6 mice on a high fat diet (60% HFD) for 12-16 weeks (ave. body weight ∼ 37-41g) were fasted for 6hr, with removal of food occurring at 7 am on the morning of the study. The animals were sorted into treatment groups the day before the study by body weight. Animals outside the bounds of ∼30-50g were left out of the study. The animals had been handled and shammed a total of 5-8 days (1-3 days immediately prior to the study). Glucose (in 1ml syringes) was drawn up the morning of the study. Test compounds were kept spinning and were only drawn into 1ml syringes prior to study commencement. Animals were bled via tail snip to determine basal glucose levels prior to dosing of treatments. An Ascensia BREEZE Blood Glucose Monitoring System by Bayer was used for determining glucose levels.
Animals were moved into the testing room at ∼9-11am, to yield them time to acclimate. The bleeds and dosing started at approximately 1pm in 30-second intervals per animal. All groups were dosed 30 minutes prior to glucose administration at a dose volume of 10ml/kg (the dose volume was calculated separately for each individual animal). Test compounds were administered at two or more of the following dosages: 0.1 mg/kg, 0.3 mg/kg, 1 mg/kg, 3 mg/kg, 10 mg/kg and 30 mg/kg.
Thirty minutes after the first dose (with test compound) animals were bled again for a second baseline, or T=0, and immediately dosed with glucose (20% solution; TEKNOVA, 250ml sterile bottle w/ catalogue number G0525) via a PO injection. The exact dose volume for glucose was also calculated separately for each individual animal.
Blood glucose was measured at 15, 30, 45, 60, and 90 minutes post-glucose administration via the snipped tail. If an animal reached a value of "HI", the upper limit of the glucometer (600mg/dl) was substituted as the blood glucose value and the study was analyzed as normal with no exclusions. If 50% or more of any treatment group reaches a "HI" value at least once, the study was considered invalid and repeated. Glucose values were typed into an EXCEL spreadsheet where they were used to calculate glucose AUC and delta AUC post-compound and post-glucose. The glucose excursion curves and the different versions of the AUC's were graphed in GraphPad Prism 5.
Note: All statistics completed in this study were completed using the statistical software package GraphPad Prism 5. Standard procedures for analyzing data sets from screening GPR120 compounds in DIO mouse OGTT's were as listed here below. In addition to the statistics that were run using GraphPad Prism 5, Microsoft Excel was used to calculate the percent changes in AUC from vehicle groups as detailed below.
Change from -30 to 0 BSLN Glucose, Raw Glucose AUC -30 to 90min, Delta Glucose AUC -30 to 90min, Raw Glucose AUC 0 to 90min, Delta Glucose AUC 0 to 90min were analyzed using Column Statistics Analysis, with mean values used to calculate % change from the vehicle mean group, as well as mean, SEM and / or % change from vehicle, where appropriate; and using One-Way ANOVA w/ a Tukey Post-Test (Comparing All Pairs of Columns) with each treatment group examined to see if it was statistically significant compared to vehicle (*= P<0.05, **= P<0.01, ***= P<0.001).

As for `CCc1ccc(-n2ccc(C(F)(F)F)c2COc2c(F)cc(CCCO)cc2F)cc1` [Compound 33, 3-(4-{[1-(4-Ethylphenyl)-3-(trifluoromethyl)-1H-pyrrol-2-yl]methoxy}-3,5-difluorophenyl)propan-1-ol], in the test with C57bl6 Mouse (10.0 mg/kg), the “GPR120 C57bl6 Mouse IPGTT Results” value is listed as -26.

On to `Cc1ccc(-n2ccc(C(F)(F)F)c2COc2c(F)cc(CCC(=O)O)cc2F)cc1` [Compound 39, 3-(3,5-Difluoro-4-{[1-(4-methylphenyl)-3-(trifluoromethyl)-1H-pyrrol-2-yl]methoxy}phenyl)propanoic acid], for which the “DIO Lowering Glucose AUC” value is on record as -59% with DIO Mice (3 mg/kg) and -68% with DIO Mice (10 mg/kg).

For the compound `COc1ccc(-n2ccc(C(F)(F)F)c2COc2ccc(CCCO)c(F)c2F)cc1` [Compound 27, 3-(2,3-Difluoro-4-{[1-(4-methoxyphenyl)-3-(trifluoromethyl)-1H-pyrrol-2-yl]methoxy}phenyl)propan-1-ol], in the test on C57bl6 Mouse (10.0 mg/kg), the “GPR120 C57bl6 Mouse IPGTT Results” value is on record as -16.

As to `COc1ccc(-n2ccc(C(F)(F)F)c2COc2c(F)cc(CCCO)cc2F)cc1` [Compound 31, 3-(3,5-Difluoro-4-{[1-(4-methoxyphenyl)-3-(trifluoromethyl)-1H-pyrrol-2-yl]methoxy}phenyl)propan-1-ol], the “C57bl6 Mouse IPGTT dose response” value is given as 2% in the test with C57bl6 Mouse (1 mg/kg), -39% in the test on C57bl6 Mouse (3 mg/kg) and -44% with C57bl6 Mouse (10 mg/kg). The “GPR120 C57bl6 Mouse IPGTT Results” value in the test with C57bl6 Mouse (10.0 mg/kg) is reported as -43.

Regarding `CCc1ccc(-n2ccc(C(F)(F)F)c2COc2ccc(CCC(=O)O)c(F)c2F)cc1` [Compound 34, 3-(4-{[1-(4-Ethylphenyl)-3-(trifluoromethyl)-1H-pyrrol-2-yl]methoxy}-2,3-difluorophenyl)propanoic acid], the “DIO Lowering Glucose AUC” value is recorded as -27% in the test on DIO Mice (3 mg/kg) and -50% with DIO Mice (10 mg/kg).

`OCCCc1cc(F)c(OCc2c(C(F)(F)F)ccn2-c2ccc(Br)cc2)c(F)c1` [Compound 30, 3-(4-{[1-(4-Bromophenyl)-3-(trifluoromethyl)-1H-pyrrol-2-yl]methoxy}-3,5-difluorophenyl)propan-1-ol]: the “C57bl6 Mouse IPGTT dose response” value with C57bl6 Mouse (1 mg/kg) is 1%; in the test on C57bl6 Mouse (3 mg/kg), -14%; in the test with C57bl6 Mouse (10 mg/kg), -48%. For the same compound, the “GPR120 C57bl6 Mouse IPGTT Results” value in the test with C57bl6 Mouse (10.0 mg/kg) is -53.

As to `Cc1c(CCC(=O)O)ccc(OCc2cccn2-c2ccc(Cl)cc2)c1C` [Compound 1, 3-(4-{[1-(4-Chlorophenyl)-1H-pyrrol-2-yl]methoxy}-2,3-dimethylphenyl)propanoic acid], in the test with C57bl6 Mouse (30.0 mg/kg), the “GPR120 C57bl6 Mouse IPGTT Results” value is recorded as “not different from vehicle”.

As to `Cc1ccc(-n2ccc(C(F)(F)F)c2COc2c(F)cc(CCCO)cc2F)cc1` [Compound 37, 3-(3,5-Difluoro-4-{[1-(4-methylphenyl)-3-(trifluoromethyl)-1H-pyrrol-2-yl]methoxy}phenyl)propan-1-ol], the “GPR120 C57bl6 Mouse IPGTT Results” value in the test on C57bl6 Mouse (10.0 mg/kg) is reported as -30.

With `O=C(O)CCc1cc(F)c(OCc2c(C(F)(F)F)ccn2-c2ccc(Cl)cc2)c(F)c1` [Compound 70, 3-(4-{[1-(4-Chlorophenyl)-3-(trifluoromethyl)-1H-pyrrol-2-yl]methoxy}-3,5-difluorophenyl)propanoic acid], the figures for the “DIO Lowering Glucose AUC” value with DIO Mice (3 mg/kg) and with DIO Mice (10 mg/kg) were -79% and -82%, respectively. Also, the “Lowering Glucose AUC” value was 9% in the test with DIO Mice (0.1 mg/kg), -8% in the test on DIO Mice (0.3 mg/kg), -54% with DIO Mice (1.0 mg/kg) and -73% in the test with DIO Mice (3.0 mg/kg).
